Our source for the MIC values is US20260274892A1, “MACROCYCLIC BROAD SPECTRUM ANTIBIOTICS” (RQx Pharmaceuticals, Inc., priority 2017, published 2026).

Assay [1] relates to Escherichia coli ATCC 25922. The assay can be described thus: Minimum inhibitory concentration (MIC), CLSI broth micro-dilution, E. coli. Format: cell-based. The following applies: Escherichia coli, ATCC25922, 22 h, Table 6, cation adjusted Mueller Hinton Broth + 0.002% Tween-80, 35° C. The gist of the method:
(§1)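 Colonies grown 20 h at 35° C on Trypticase Soy agar (MRSA) or Luria agar (E. coli) were suspended in cation-adjusted Mueller Hinton broth with 0.002% Tween-80. Suspensions were added at OD600 0.0005 to 10-point twofold compound dilutions, then incubated 22 h at 35° C.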
(In broth dilution the organism is exposed to a series of concentrations in liquid medium.)

The test system of assay [2] is Methicillin Resistant Staphylococcus aureus strain USA 200. The assay can be described thus: Minimum inhibitory concentration (MIC), CLSI broth micro-dilution, S. aureus. The class given is cell-based. The following applies: Staphylococcus aureus, MRSA / USA200; Table 6; MRSA USA 200; cation adjusted Mueller Hinton Broth + 0.002% Tween-80; 35° C., 22 hours. In short, it runs like this: as §1

For `Cc1nc(N2CC(C(C)(C)C)C2)nc(C)c1C(=O)N[C@@H](CCN)C(=O)N(C)[C@@H]1C(=O)N[C@@H](C)C(=O)N[C@H](C(=O)NCC#N)Cc2ccc(OCCN)c(c2)-c2cc1ccc2OCCN` (racemic) [Compound 316, rac-(8S,11S,14S)-3,18-bis(2-aminoethoxy)-N-(cyanomethyl)-11-methyl-14-[methyl-[rac-(2S)-4-amino-2-[[2-(3-tert-butylazetidin-1-yl)-4,6-dimethyl-pyrimidine-5-carbonyl]amino]butanoyl]amino]-10,13-dioxo-9,12-diazatricyclo[13.3.1.12,6]icosa-1(18),2(20),3,5,15(19),16-hexaene-8-carboxamide], the MIC worked out at 1.5 µM in assay [1] and 0.38 µM in assay [2].
The corresponding values for `CCCCCOC1CCN(c2nc(C)c(C(=O)N[C@@H](CCN)C(=O)N(C)[C@@H]3C(=O)N[C@@H](C)C(=O)N[C@H](C(=O)NCC#N)Cc4ccc(OCCN)c(c4)-c4cc3ccc4OCCN)c(C)n2)CC1` (racemic) [Compound 317, rac-(8S,11S,14S)-3,18-bis(2-aminoethoxy)-N-(cyanomethyl)-11-methyl-14-[methyl-[rac-(2S)-4-amino-2-[[4,6-dimethyl-2-(4-pentoxy-1-piperidyl)pyrimidine-5-carbonyl]amino]butanoyl]amino]-10,13-dioxo-9,12-diazatricyclo[13.3.1.12,6]icosa-1(18),2(20),3,5,15(19),16-hexaene-8-carboxamide] are 0.5 µM and 0.047 µM.
The corresponding values for `Cc1nc(-n2ccc(C(C)(C)C)cc2=O)nc(C)c1C(=O)N[C@@H](CCN)C(=O)N(C)[C@@H]1C(=O)N[C@@H](C)C(=O)N[C@H](C(=O)NCC#N)Cc2ccc(OCCN)c(c2)-c2cc1ccc2OCCN` (racemic) [Compound 319, rac-(8S,11S,14S)-3,18-bis(2-aminoethoxy)-N-(cyanomethyl)-11-methyl-14-[methyl-[rac-(2S)-4-amino-2-[[2-(4-tert-butyl-2-oxo-1-pyridyl)-4,6-dimethyl-pyrimidine-5-carbonyl]amino]butanoyl]amino]-10,13-dioxo-9,12-diazatricyclo[13.3.1.12,6]icosa-1(18),2(20),3,5,15(19),16-hexaene-8-carboxamide] are 8 µM and 1 µM.
For the compound `Cc1nc(-c2ccc(N3CCC(C(C)(C)C)CC3)cc2)nc(C)c1C(=O)N[C@@H](CCN)C(=O)N(C)[C@@H]1C(=O)N[C@@H](C)C(=O)N[C@H](C(=O)NCC#N)Cc2ccc(OCCN)c(c2)-c2cc1ccc2OCCN` (racemic) [Compound 320, rac-(8S,11S,14S)-3,18-bis(2-aminoethoxy)-N-(cyanomethyl)-11-methyl-14-[methyl-[rac-(2S)-4-amino-2-[[2-[4-(4-tert-butyl-1-piperidyl)phenyl]-4,6-dimethyl-pyrimidine-5-carbonyl]amino]butanoyl]amino]-10,13-dioxo-9,12-diazatricyclo[13.3.1.12,6]icosa-1(18),2(20),3,5,15(19),16-hexaene-8-carboxamide], the MIC in assay [1] was determined as 0.19 µM; in assay [2], 0.016 µM.
As to `Cc1nc(-c2ccc(N3CCCC3)cc2)nc(C)c1C(=O)N[C@@H](CCN)C(=O)N(C)[C@@H]1C(=O)N[C@@H](C)C(=O)N[C@H](C(=O)NCC#N)Cc2ccc(OCCN)c(c2)-c2cc1ccc2OCCN` (racemic) [Compound 321, rac-(8S,11S,14S)-3,18-bis(2-aminoethoxy)-N-(cyanomethyl)-11-methyl-14-[methyl-[rac-(2S)-4-amino-2-[[4,6-dimethyl-2-(4-pyrrolidin-1-ylphenyl)pyrimidine-5-carbonyl]amino]butanoyl]amino]-10,13-dioxo-9,12-diazatricyclo[13.3.1.12,6]icosa-1(18),2(20),3,5,15(19),16-hexaene-8-carboxamide], the results for the MIC in assay [1] and in assay [2] were 0.38 µM and 0.047 µM, respectively.
In the same order, the values of `Cc1nc(-c2ccc(N3CCC(F)(F)CC3)cc2)nc(C)c1C(=O)N[C@@H](CCN)C(=O)N(C)[C@@H]1C(=O)N[C@@H](C)C(=O)N[C@H](C(=O)NCC#N)Cc2ccc(OCCN)c(c2)-c2cc1ccc2OCCN` (racemic) [Compound 322, rac-(8S,11S,14S)-3,18-bis(2-aminoethoxy)-N-(cyanomethyl)-11-methyl-14-[methyl-[rac-(2S)-4-amino-2-[[2-[4-(4,4-difluoro-1-piperidyl)phenyl]-4,6-dimethyl-pyrimidine-5-carbonyl]amino]butanoyl]amino]-10,13-dioxo-9,12-diazatricyclo[13.3.1.12,6]icosa-1(18),2(20),3,5,15(19),16-hexaene-8-carboxamide] are 0.6 µM and 0.15 µM.
The corresponding values for `Cc1nc(-c2ccc(N3CCC3)cc2)nc(C)c1C(=O)N[C@@H](CCN)C(=O)N(C)[C@@H]1C(=O)N[C@@H](C)C(=O)N[C@H](C(=O)NCC#N)Cc2ccc(OCCN)c(c2)-c2cc1ccc2OCCN` (racemic) [Compound 323, rac-(8S,11S,14S)-3,18-bis(2-aminoethoxy)-N-(cyanomethyl)-11-methyl-14-[methyl-[rac-(2S)-4-amino-2-[[2-[4-(azetidin-1-yl)phenyl]-4,6-dimethyl-pyrimidine-5-carbonyl]amino]butanoyl]amino]-10,13-dioxo-9,12-diazatricyclo[13.3.1.12,6]icosa-1(18),2(20),3,5,15(19),16-hexaene-8-carboxamide] are 1 µM and 0.38 µM.
In the same order, the values of `Cc1nc(-c2ccc(N3CCCCC3)cc2)nc(C)c1C(=O)N[C@@H](CCN)C(=O)N(C)[C@@H]1C(=O)N[C@@H](C)C(=O)N[C@H](C(=O)NCC#N)Cc2ccc(OCCN)c(c2)-c2cc1ccc2OCCN` (racemic) [Compound 324, rac-(8S,11S,14S)-3,18-bis(2-aminoethoxy)-N-(cyanomethyl)-11-methyl-14-[methyl-[rac-(2S)-4-amino-2-[[4,6-dimethyl-2-[4-(1-piperidyl)phenyl]pyrimidine-5-carbonyl]amino]butanoyl]amino]-10,13-dioxo-9,12-diazatricyclo[13.3.1.12,6]icosa-1(18),2(20),3,5,15(19),16-hexaene-8-carboxamide] are 0.13 µM and 0.047 µM.
As for `Cc1nc(-c2ccc(N3CCCCCC3)cc2)nc(C)c1C(=O)N[C@@H](CCN)C(=O)N(C)[C@@H]1C(=O)N[C@@H](C)C(=O)N[C@H](C(=O)NCC#N)Cc2ccc(OCCN)c(c2)-c2cc1ccc2OCCN` (racemic) [Compound 325, rac-(8S,11S,14S)-3,18-bis(2-aminoethoxy)-N-(cyanomethyl)-11-methyl-14-[methyl-[rac-(2S)-4-amino-2-[[2-[4-(azepan-1-yl)phenyl]-4,6-dimethyl-pyrimidine-5-carbonyl]amino]butanoyl]amino]-10,13-dioxo-9,12-diazatricyclo[13.3.1.12,6]icosa-1(18),2(20),3,5,15(19),16-hexaene-8-carboxamide], the MIC in assay [1] was found to be 0.13 µM; in assay [2], 0.016 µM.

By MIC is commonly meant the lowest concentration that inhibits growth of the organism.
